Consider one compound from US20160220464A1 (WUHAN OPTICS VALLEY BRIDGEBIOMED INTERNATIONAL CORPORATION, priority 2013, published 2016).

Read-outs that look alike come from different tables or passages of the source.

For orientation: EC50 means the concentration giving half of the maximal effect. Broadly, the Emax is the greatest response seen or fitted, relative to the assay's reference.

The target in data set [1] is T1, BK B2 receptor (Homo sapiens, UniProt P30411).
T1 construct: The cell strains used in the study were human primary vein endothelial cells (HPVEC) and human aortic smooth muscle cells (HASMC); endogenous in cells; host or cells: human primary vein endothelial cells (HPVEC) and human aortic smooth muscle cells (HASMC)
T1 sequence (P30411 1-391): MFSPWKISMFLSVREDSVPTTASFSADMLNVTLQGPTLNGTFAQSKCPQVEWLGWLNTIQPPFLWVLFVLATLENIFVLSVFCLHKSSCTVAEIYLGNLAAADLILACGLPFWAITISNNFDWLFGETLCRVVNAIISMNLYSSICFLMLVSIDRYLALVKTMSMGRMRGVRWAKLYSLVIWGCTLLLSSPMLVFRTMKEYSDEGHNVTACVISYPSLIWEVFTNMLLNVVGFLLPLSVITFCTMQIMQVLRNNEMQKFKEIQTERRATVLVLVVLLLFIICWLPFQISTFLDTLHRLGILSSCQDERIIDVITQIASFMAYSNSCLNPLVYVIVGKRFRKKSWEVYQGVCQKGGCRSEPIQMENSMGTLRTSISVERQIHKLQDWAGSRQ
The data set is described as follows: Relative amount of PG secretion in cell supernatant by enzyme immunoassay (EIA). The format is cell-based. The settings on record: 1 h, 1 μM BK set as 100%. The protocol:
YLB-01, YLB-02 and YLB-03 were selected for the study as described below in Table 1, and BK was used as control. Implantation Two cell lines were transferred into T-75 cell culture flask, and then the instructions of PG kit were strictly followed when cells have reached the appropriate density. Day 1 Cells were seeded in 24 well dishes with minimum medium and allowed to adhere overnight. Day 2 Cells were starved in the serum-free conditioned medium. […] The supernatant was collected after incubation for later use. Day 4 24 well dishes were washed and then dyed for 45-90 min, and then the OD value was measured for analysis. […] In order to detect endogenous prostaglandin, enzyme immunoassay (EIA) was used to determine the amount of prostaglandin and subtypes thereof in the cell supernatant described above.

For data set [2], the target named is T2, bradykinin (BK) B2 receptors (Homo sapiens, UniProt P30411).
T2 construct: The cell strains used in the study were human primary vein endothelial cells (HPVEC) and human aortic smooth muscle cells (HASMC); endogenous in cells; host or cells: human primary vein endothelial cells (HPVEC) and human aortic smooth muscle cells (HASMC)
T2 sequence (P30411 1-391): T1 sequence (P30411 1-391)
The data set is described as follows: PG secretion by BK B2 receptor agonists (PG kit, OD), EC50 and Emax. The data set is classed as cell-based. To be noted: HASMC; for Emax: relative to BK. The protocol: Implantation Two cell lines were transferred into T-75 cell culture flask, and then the instructions of PG kit were strictly followed when cells have reached the appropriate density. Day 1 Cells were seeded in 24 well dishes with minimum medium and allowed to adhere overnight. Day 2 Cells were starved in the serum-free conditioned medium. Day 3 Minimum medium were used, and YLB-01, YLB-02 and YLB-03 were added to the medium, in which the concentration was 0.1 nM, 1 nM, 10 nM, 30 nM, 100 nM, 300 nM, 1 μM, 3 μM and 10 μM, respectively; the cells were incubated at 37° C. for 1 h. The supernatant was collected after incubation for later use. Day 4 24 well dishes were washed and then dyed for 45-90 min, and then the OD value was measured for analysis. The cell strains used in the study were human primary vein endothelial cells (HPVEC) and human aortic smooth muscle cells (HASMC).

The nature of data set [3]: Transdermal experiment, modified Franz diffusion pool with HPLC. The format is in vitro ADME, mice. As for the experimental part: To explore the optimized dosage form and preparation technology of BK B2 receptor agonist, we selected YLB-01, which has the long-term stability for preservation, as a sample from three agonists (YLB-01, YLB-02, YLB-03) and prepared three kinds of dosage form, analyzed by transdermal experiments and high-performance liquid phase (HPLC) content analysis. Three dosage forms (liniments, gels and ointments) of […] were prepared in different concentrations (0.03%, 0.3% and 3%). Then, different proportional of transdermal promoters was added to perform transdermal experiments. The transdermal effects of three kinds of YLB-01 formulation were evaluated by the modified Franz diffusion pool. Cumulative transmittance of liniments, gels and ointments in 0.3% concentration of YLB-01 for 9 hours was measured respectively. Results: (1) The best transdermal promoter ratio of liniments, gels and ointments were 2% propylene glycol+2% azone, 4% propylene glycol, and 5% propylene glycol+2% azone. (2) 9 hours of cumulative transmittance of 0.03%, 0.3%, 3% liniments were 4.23%, 10.96% and 12.17%, respectively; 9 hours of cumulative transmittance of 0.03%, 0.3%, 3% gels were 2.29%, 4.43% and 13.57%, respectively; 9 hours of cumulative transmittance of 0.03%, 0.3%, 3% ointments were 2.08%, 1.12% and 0.73%, respectively. Conclusion: The different contents of […] liniments, gels and ointments are all have some transdermal abilities, and the abilities are: liniments>gels>ointments.
To determine the optimal dosage form of YLB-01 and best transdermal promoter, we plan to use transdermal test combined with HPLC content analysis as screening basis, research on dosage forms and transdermal promoter to achieve a stable and reliable preparation. The samples were analyzed by HPLC on an Agilent TC-C18 column (150 mm×4.6 mm, 5 microns). The mobile phases were methanol and 0.02 mol/L potassium dihydrogen phosphate buffer (66:34, pH was adjusted to 4 with phosphoric acid). Flow rate: 1 ml/min; Column temperature: 30° C. Excitation wavelength and fluorescent wavelength of fluorescence detection were 267 nm and 380 nm, respectively. Under this condition, YLB-01 retention time was 3.898 min, target compounds peak shape is good which could be effectively separated, and no impurity peak, baseline is smooth (shown as FIG. 6).
The abdominal hair of mice was removed. The mice were sacrificed by spinal dislocation. The subcutaneous fat was removed, and the depilous skin of abdomen was reserved in 4° C. physiological saline. Skin was fixed between the supply room and reception room facing the supply room. The effective permeability area was 4 cm^2. Receiving liquid was physiological saline, and receiving chamber volume V were 25 ml. 1.0 g of the tested sample was coated evenly on the effective skin surface with the electromagnetic stirrer run at a speed of 300 r/min. To take out the receiving liquid in 1, 2, 3, 4, 5, 6, 7, 8, 9 h, 0.5 ml/h (Complementing the same quantity each time), the samples were centrifuged and the supernatant was took for HPLC analysis.
After the detection, the cumulative transmittance P (%) was calculated:
V: the volume of receiving liquid in receiving room; Ci: drug concentration in receiving liquid between the time to last time of the i time; Cn: drug concentration in the receiving liquid when the n time taking the sample; M: drug content in the sample.

The compound `CNC(=O)c1ccc(CCC(=O)NCC(=O)N(C)c2ccc(Cl)c(COc3cccc4c3nc(OC)n4Cc3ccccn3)c2Cl)cc1` [YLB-01, 4-(3-2-((2,4-dichloro-3-((2-methoxy-1-(pyridine-2ylmethyl)-1H-benzo[d]imidazol-4-yloxy)methyl)phenyl)(methyl)amino-2-oxoethylamino)-3-oxopropyl)-N-methylbenzamid] displayed an activation at 0.0001 µM in data set [1] (0.1 nM) of 0%. Moreover, the activation at 0.001 µM in data set [1] (1 nM) is 7.69 ± 2.19%. For the same compound, the activation at 0.01 µM in data set [1] (10 nM) is approximately 50%. Also, in data set [1] (30 nM), the activation at 0.03 µM worked out at 53.7 ± 4.56%. This compound also registered an activation at 0.1 µM in data set [1] (100 nM) of 73.4 ± 2.7%. Also, the activation at 0.3 µM in data set [1] (300 nM) was determined as 83.8 ± 6.45%. The compound further came in with an activation at 1 µM in data set [1] (1 μM) of 87 ± 3.76%. In addition, the activation at 3 µM in data set [1] (3 μM) came out at 87.8 ± 4.2%. In data set [1] (10 μM), this compound had an activation at 10 µM of 86.5 ± 7.44%. The same compound came in with an EC50 in data set [2] (1 h incubation at 37° C.) of 24.4 ± 3 nM. Also, the Emax in data set [2] (read-out: Emax) stood at 87%; in data set [2] it was 87.79 ± 4.2%. Also, the “Cumulative Penetration Rate of 9 Hours” value was determined as 2.29% in data set [3] (gels, 0.03% YLB-01, 4% propylene glycol, 0% azone); 4.43% in data set [3] (gels, 0.3% YLB-01, 4% propylene glycol, 0% azone); 13.57% in data set [3] (gels, 3% YLB-01, 4% propylene glycol, 0% azone); 4.23% in data set [3] (liniments, 0.03% YLB-01, 2% propylene glycol + 2% azone); 10.96% in data set [3] (liniments, 0.3% YLB-01, 2% propylene glycol + 2% azone); 12.17% in data set [3] (liniments, 3% YLB-01, 2% propylene glycol + 2% azone). For the same compound, the “Cumulative Penetration Rate of 9 Hours” value in data set [3] (ointments, 0.03% YLB-01, 5% propylene glycol + 2% azone) was 2.08%; in data set [3] (ointments, 0.3% YLB-01, 5% propylene glycol + 2% azone), 1.12%; in data set [3] (ointments, 3% YLB-01, 5% propylene glycol + 2% azone), 0.73%.
